Assay results taken from patent US20140212437A1, “METHODS AND COMPOSITIONS FOR TREATING ATRIAL FIBRILLATION” (THE REGENTS OF THE UNIVERSITY OF MICHIGAN, priority 2013, published 2014).
Entries after “also recorded” stand apart in the source; their conditions may differ. Each block holds one compound with its values, some of them ahead of it.

Experiments:
[1] = tested on: SCN5A; experiment: mRNA analysis by qPCR, SCN5A; format: cell-based, rat
Procedure: (§1) Cell Treatment: Isolated adult rat cardiac myocytes were treated with FCM or TGF-β1 (R and D systems, Minneapolis, Minn.) for 3 days in serum free medium. For PI3K pathway inhibition cells were pretreated (30 min) with 10 μM […] (Cayman Chemicals, Ann Arbor) before the treatment with TGF-β1.
(§2) mRNA analysis by quantitative PCR (qPCR): Cardiac myocytes were washed with PBS and lysed with lysis buffer. RNA was isolated from the myocardial tissue using RNAeasy kit from Qiagen (Qiagen, Valencia, Calif.) according to the manufacturer's instructions. Isolated RNA from these samples was treated with DNase for 15 min at room temperature (Qiagen, Valencia. CA). 100 ng of DNA-free total poly-A tail RNA (mRNA) was first subjected to synthesis of cDNA using Oligo dT primers applying SuperScript III First-Strand Synthesis System from Invitrogen (Invitrogen, Carlsbad, Calif.) according to the manufacturer's instructions. cDNA from 20 ng of total RNA was then subjected to real-time RT-PCR using predesigned taqman probe primers specific for rat Scn5a (Rn00565502), Kcnip2 (Kchip2; Rn01411451) and kcnd2 (Rn01456260) (Applied Biosystems, California). No-template controls and no-RT controls were run during each experiment to detect any RNA and/or DNA contamination. Results are expressed as fold expression of gene of interest normalized to GAPDH expression in the sample.

[2] = tested on: FOXO1; experiment: Western blot of FOXO1 phosphorylation; format: cell-based, rat
Procedure: as §1
Western blotting: Control and treated cardiac myocytes were washed in cold PBS, lysed directly in the modified loading buffer (25 mmol/l Tris.HCl; 150 mmol/l NaCl; 1 mmol/l EDTA; 4 mmol/l NaF; 2 mmol/l Sodium ortho-vanadate; 1% Triton X-100, protease inhibitor, 5% glycerol, 1% SDS, 0.05% bromophenol blue. 5% β mercaptoethanol) and sonicated. The lysate (20 μl) were then subjected SDS-PAGE as described earlier. The blots were incubated with rabbit pFOXO1 antibody, 1:500 (Cell Signaling) or rabbit GAPDH antibody, 1:5000 (Sigma-Aldrich, St. Louis, Mo.).

[3] = tested on: adult sheep atrial fibroblasts; experiment: Wound healing (in vitro migration) assay; format: cell-based; conditions: Gal-3 vs untreated cells, days 0-2
Procedure: (§3) Wound healing experiments were performed to investigate if exogenous Gal-3 can increase myofibroblast migration in vitro (FIG. 3). Adult sheep atrial fibroblasts were cultured in 96-well plates until confluent. Before serum starvation, cells were stained with cell tracker dye and DAPI. A wound was created by scraping a semi-confluent monolayer of cells with a 1 ml pipette tip. Thereafter, cells underwent serum starvation in DMEM with […] for 6 hrs. Comparisons were made between untreated and Gal-3 treated (1 μg/ml or 10 μg ml) cells. The wound was imaged at 4 different locations at 3 different time points (days 0, 1 and 2). The size of the wound was quantified using the NIS element program by Nikon. […] Next, to investigate the effects of Gal-3 on myofibroblast proliferation, adult sheep atrial fibroblasts were treated with recombinant human Gal-3 (EMD chemicals, USA) for 24 hours in the presence of SFM. FM was included as a positive control. Cell proliferation was measured using cell proliferation reagent WST (Roche Diagnostics, USA). […] Such concentrations are in the same range used previously (Sharma et al., Circulation. 2004; 110:3121-3128) to investigate Gal-3 induced fibroblast proliferation in the cardiomyopathic heart. […] In addition, the results strongly support the therapeutic value of Gal-3 inhibitors.

[4] = tested on: adult sheep atrial fibroblasts; experiment: Cell proliferation, WST reagent; format: cell-based; conditions: 1-30 μg/ml, 24 hours, SFM
Procedure: as §3

[5] = tested on: adult rat ventricular myocytes; experiment: Whole-cell patch clamp, sodium current (INa); format: cell-based
Procedure: as §1
Patch-clamp experiments: Whole-cell ionic currents were recorded from adult rat ventricular myocytes. All recordings were conducted at room temperature. Sodium current recordings were conducted in a low-sodium extracellular solution containing (in mM): NaCl, 10; MgCl2, 1; CaCl2, 1.8; CdCl2, 0.1; HEPES, 20; CsCl, 127.5; glucose, 11. The pipette solution contained (in mM): NaCl, 5; CsF, 135; EGTA, 10; MgATP, 5; HEPES, 5. To characterize the voltage dependence of the peak INa, single cells were held at −120 mV, and 200 msec voltage steps were applied from −90 to +30 mV in 5 mV increments. The interval between voltage steps was 3 sec. Voltage-dependence of inactivation was assessed by holding cells at various potentials from −160 to −40 mV followed by a 30 msec test pulse to −40 mV to elicit INa. Recovery from inactivation was studied by holding cells at −120 mV and applying two 20-msec test pulses (S1, S2) to −40 mV separated by increments of 2 msec to a maximum S1-S2 interval of 80 msec. The S1-S1 interval was kept constant at 3 sec.
(§4) In all experiments, cells were exposed to one of the following for 72 hrs prior to the experiment: control medium, FCM or TGF-β1.

[6] = tested on: adult rat ventricular myocytes; experiment: Whole-cell patch clamp, transient outward potassium current (Ito); format: cell-based; conditions: 72-hr
Procedure: as §1
The extracellular solution for transient outward potassium current (Ito) contained (in mM): 136 NaCl, 4 KCl, 1.8 CaCl2, 2 MgCl2, 10 HEPES, 0.03 tetrodotoxin. 0.01 nifedipine, and 14 glucose, pH 7.35. The pipette solution contained (in mM): 135 KCl, 1 MgCl2, 10 EGTA, 10 HEPES, 5 glucose, pH 7.2. Voltage-gated outward K+ currents were evoked during 5-s depolarizing voltage steps to potentials between −40 and +60 mV from a holding potential of −70 mV; voltage steps were presented in 10 mV increments at 15 s intervals
as §4

[7] = tested on: KCND2; experiment: mRNA analysis by qPCR, KCND2; format: cell-based, rat; conditions: 1 ng/ml, 72 hr
Procedure: as §2

[8] = tested on: KCNIP2; experiment: mRNA analysis by qPCR, KCNIP2; format: cell-based, rat; conditions: 1 ng/ml, 72 hr
Procedure: as §2

[9] = tested on: adult rat ventricular myocytes; experiment: Action potential recording, current clamp; format: cell-based
Procedure: as §1
Action potentials were recorded from individual myocytes using the current clamp mode of the MultiClamp 700B amplifier after gigaseal formation and patch break. Stimulus pulses (1-2 ms duration) were generated using a World Precision Instruments DS8000 stimulator (Sarasota, Fla.). The bath solution contained (in mM): NaCl: 148, KCl: 5.4, MgCl2: 1, CaCl2 1.8, NaH2PO4: 0.4, HEPES: 15, Glucose: 5.5, pH 7.4 with NaOH. The pipette solution contained (in mM), KCl: 20, K-aspartate: 90, KH2PO4: 10, EDTA: 5.0. K2ATP: 1.9, HEPES: 5.0 and Mg2+ 7.9; pH 7.2 (KOH)

Compound: O=c1cc(N2CCOCC2)oc2c(-c3ccccc3)cccc12 [LY 29004, reference compound]
TGF-β1-induced increase in SCN5A transcription ([1]; pretreated 30 min with 10 μM): failed to show increased SCN5A transcription
phosphorylation of FOXO1 in TGF-β1 treated cells ([2]; pretreated 30 min with 10 μM): inhibited

Compound: Gal-3: recombinant human Gal-3 (EMD chemicals, USA) added exogenously to sheep atrial fibroblasts
rate of migration / wound healing [3]: significantly increased the rate of migration and promoted wound healing; also recorded: increases the rate of wound healing
number of adult sheep atrial myofibroblasts (proliferation) [4]: increased the number of adult sheep atrial myofibroblasts in a concentration-dependent manner; also recorded: increases proliferation

EC50 for peak inward INa density ([5]; 72 hours, 0.001-1.0 ng/ml): 0.007 ng/mL
Compound: TGF-β1
SCN5A transcript levels, increase ([1]; 1 ng/ml, 72 hr): 1.73±0.26 fold
increase in phosphorylated FOXO1 compared to control ([2]; 1 ng/ml): 67%
exposure time of peak FOXO1 phosphorylation ([2]; 1 ng/ml, phosphorylation seen at 5 min): 15 min
maximum INa increase ([5]; 1 ng/ml, 72 hours, also seen at 10 ng/ml): about 40%
more inward current compared to control medium ([5]; 1 ng/ml, at −40V): about 40%
peak INa density compared to control ([5]; 1 ng/ml, step voltages between −60 mV and −30 mV, p<0.05-0.01): significantly increased the peak INa density
voltage dependence of activation (m∞) and inactivation (h∞) ([5]; 72 hr treatment or viral overexpression): neither the m∞ nor the h∞ curve was modified
peak Ito ([6]; 1 ng/ml): significantly reduced the peak Ito but to a much modest level
Ito current density, % of control levels ([6]; 10 ng/ml, at 60 mV): 57%
reduction of Ito current density ([6]; 10 ng/ml, at +20 mV): 42%
Ito current density at 60 mV ([6]; 10 ng/ml, control 22.2±1.2): 12.6±0.98
Ito compared to control ([6]; 10 ng/ml, voltages between +20 mV and +60 mV): significantly lower than control
decrease of KCND2 expression with respect to control [7]: 50.6%
reduction of mRNA levels of KCNIP2 [8]: 77%
action potential duration (APD) ([9]; 10 ng/ml, 72 hours): basic cycle length (BCL) dependent action potential duration (APD) prolongation
APD30 relative to control ([9]; 10 ng/ml, BCL of 1000 ms): > 3.5 times
APD30 ([9]; 10 ng/ml, BCL of 1000 ms, control 8.1±3.6): 29.1 ± 5.6 ms
action potential duration / early afterdepolarizations ([9]; 50 ng/ml): APD was so prolonged that some cells early afterdepolarizations (EADs)
